# Data published in patent US8105980B1, “Method of increasing the content of flavonoids and phenolic substances substances inplants” (Basf Aktiengesellschaft, priority 1999, dated 2012).
# Columns and labels:
# [1] = test system: Apple plants cv. “Weirouge”; test: Eriodictyol and luteoliflavan content in young apple leaves after treatment (HPLC); assay type: in vivo; conditions: for Eriodictyol / Luteoliflavan: 250 ppm to runoff, youngest fully developed leaf
# Protocol: Apple plants cv. “Weirouge” were grown under controlled-environment conditions and treated to runoff point with 250 ppm prohexadione-calcium (formulated as BAS 125 10 W=wettable granules, content 10%). At various points in time after the treatment, the youngest fully developed leaf was harvested from each individual shoot. The freeze-dried leaves which had been ground using a pestle and mortar were extracted with methanol. Flavonoids and related compounds in the concentrated extract were analyzed by HPLC. Separation was performed on Hypersil ODS (particle size 3 μm) on a 250×4 mm column. Elution was carried out at a flow rate of 0.5 ml per minute, and mixtures of formic acid (5% in water) and methanol, increased stepwise from a ratio of 95:5 to 10:90 (v/v) were used. Phenolic acids and flavonols were detected at 280 nm. Flavan-3-ols were determined by post-column derivatization with p-dimethylaminocinnamaldehyde at 640 nm. For methodological details, see Treutter et al. (1994), Journal of Chromatography A 667, 290-297.
# Vines cv. “Dornfelder” = test: Treatment of Dornfelder vines: ripeness, acid, pigmentation and taste of harvested grapes; assay type: in vivo, grapevine
# Protocol: Vines cv. “Dornfelder” were treated twice at different points in time with the formulation BAS 125 10W, which contains prohexadione-calcium. 1000 g of prohexadione-calcium in 1000 l of spray mixture were applied per ha per treatment.
# The 1st application was carried out at developmental stage 73 before the berries developed their color, and the 2nd application 10 days thereafter.
# Untreated control: 69° Oechsle, acid: 7.3 g/l; treated control: 67° Oechsle, acid: 7.4 g/l.
# apple tissue cultures = conditions: cited from earlier work
# shoot tissue of apples = shoot tissue of apples after exposure; cited from earlier work
# [2] = two applications of 1000 g/ha in 1000 l spray mixture (BAS 125 10W), at harvest
substance,measurement,setting,value
prohexadione-calcium,Eriodictyol,[1]; 12 days after treatment,17 g/kg dry matter
same,Luteoliflavan,[1]; 12 days after treatment,0 g/kg dry matter
same,Eriodictyol,[1]; 21 days after treatment,27 g/kg dry matter
same,Luteoliflavan,[1]; 21 days after treatment,34 g/kg dry matter
same,eriodictyol concentration in treated leaves,[1]; after 12 and 21 days,markedly increased
same,pigmentation of treated grapes,Vines cv. “Dornfelder”; compared with untreated grapes,less pronounced
same,taste of treated grapes,Vines cv. “Dornfelder”; compared with untreated grapes,no difference was observed
same,acid of harvested grapes,Vines cv. “Dornfelder”; [2],7.4 g/L
same,degree of ripeness of harvested grapes,Vines cv. “Dornfelder”; [2],67 ° Oechsle
same,content of phenolic substances,apple tissue cultures,increased several times
same,catechin and cyanidin in treated tissue,shoot tissue of apples,"not detectable in the treated tissue, or found in considerably reduced amounts only"
same,luteoliflavan and eriodictyol amounts,shoot tissue of apples,relatively large amounts
